In US20250320246A1, “3-AZASTEROID COMPOUNDS FOR THE TREATMENT OF DISEASES RELATED TO MITROCHONDRIAL FUNCTION” (NZP UK LIMITED, priority 2022, published 2025):
pEC50: −log10 of the molar value. Where a name gives a salt, the structure may show the parent alone.

What was measured:
Assay type in all cases: cell-based, human
[1] = tested on: sporadic PD patient fibroblasts; assay: Cellular ATP levels in sporadic PD patient fibroblasts, full ATP assay; settings: 24 h, 3 sporadic PD patient fibroblasts; for pEC50: 8-point range 0.06 nM-300 nM; for Emax at 0.3 µM: max response with highest dose of compound (300 nM), read-out: ATP % of vehicle, top %; for activity at 60 pM: max response with lowest dose of compound (0.06 nM), read-out: ATP % of vehicle, bottom %
Protocol: (§1) Primary fibroblast cells were cultured continuously in Glucose based medium (high glucose (4500 mg/L) Dulbecco's Modified Eagle's medium (DMEM; Sigma-Aldrich) supplemented with 10% fetal bovine serum (Sigma-Aldrich), 100 IU/mL penicillin, 100 μg/mL streptomycin (Lonza), 1 mM sodium pyruvate (Sigma-Aldrich) and 50 μg/mL uridine (Sigma-Aldrich)). Unless otherwise stated, 24 hours prior to analysis, the Glucose based medium was exchanged for Galactose based medium (glucose-free DMEM (Gibco) with the same supplementation and in addition, 5 mM galactose (Sigma-Aldrich)). All cells were assessed between passage 6-10.
The ATP protocol is generally as described in Mortiboys et al 2008. Briefly, fibroblasts were cultured as and plated into white 384 well plates at a concentration of 5000 cells per well in 50 μl of media volume. The plates are left overnight in an incubator to allow the fibroblasts to adhere to the plate surface. The following morning the Glucose based medium is replaced with 25 μl of Galactose based medium. The plates were then spiked with the compounds using a ECHO 550 liquid handling system. The wells were dosed to provide an 8-point concentration range of 0.06 nM-300 nM of compound. After dosing the wells are topped up with a further 25 μl of Galactose based medium and then left in an incubator for 24 hours. Following this incubation, the medium is removed from the plate and the wells are washed twice with sterile PBS. The wells are filled with 25 μl of Sterile PBS followed by 12.5 μl of Lysis solution from the ATPlite™ Luminescence ATP detection assay system (Perkin Elmer), including 16 cell free wells to use as blank controls. The plate is then placed on a rotary shaker for 5 mins at 700 rpm. Following the shaking 12.5 μl of ATP substrate solution (Perkin Elmer) is added to each well and a further 5 min of shaking. The plate is then placed in darkness for 10 minutes prior to reading. Using a PHERAStar® plate reader, luminescence intensity is recorded. Following the ATP assay the plates are immediately assayed for DNA content in a CyQUANT® assay.
(§2) Immediately following The ATP assay DNA content is assessed with the CyQUANT® NF Cell Proliferation Assay Kit (ThermoFisher). CyQUANT® buffer is prepared immediately before the assay and is comprised of 1 μl CyQUANT® dye per ml×1 HBSS solution. 12.5 μl of CyQUANT® buffer is added to each well. Plate left in incubator for 1 hour then read on a PHERAStar© Plate reader with excitation at 497 nm and emission at 520 nm.
ATP Quantification for each well is determined using the following formula: […]
After the assays had been repeated in triplicate per line and compound the data was then inputted into Graph pad Prism 7 software suite where a dose response curve is generated using the default “[Agonist] vs response(three parameters)” equation.
From this EC50 values, lowest response and maximal response were taken and used to calculate the Geometric mean between the 5 different lines assessed.

[2] = tested on: sporadic PD patient fibroblasts; assay: Mitochondrial membrane potential (MMP, TMRM) in sporadic PD patient fibroblasts; settings: 24 h, 3 sporadic PD patient fibroblasts; for pEC50: 8-point range 0.06 nM-300 nM; for Emax: max response with highest dose of compound (300 nM), read-out: MMP % of vehicle, top %; for activity at 60 pM: max response with lowest dose of compound (0.06 nM), read-out: MMP % of vehicle, bottom %
Protocol: as §1
Fibroblasts were cultured and plated into a greiner black 384 μClear® plate at a concentration of 1000 cells per well in 50 μl of media volume. The plates are left overnight in an incubator to allow the fibroblasts to adhere to the plate surface. The following morning the Glucose based medium is replaced with 25 μl of Galactose based medium. The plates were then dosed with the compounds using an ECHO® 550 liquid handling system. The wells were dosed to provide an 8-point concentration range of 0.06 nM-300 nM of compound. After dosing the wells are topped up with a further 25 μl of Galactose based medium and then left in an incubator for 24 hours. After 24 hours, the medium is removed from the wells and replaced with 25 μl phenol free Minimal essential medium supplemented with 10% FBS, 1% Penicillin-streptomycin, 1% sodium pyruvate, 0.1% uridine, 1% non-essential amino acids and 1% MEM vitamins with 80 nM TMRM (Sigma) and 10 μM Hoechst Stain (Sigma). The plate is returned to the incubator for another hour after which the stain medium is removed and replaced with 25 μl Phenol free MEM. The plate is then imaged using an IN Cell high content microscope (GE Healthcare) with fields of view per well in 2 channels, Cy3 excitation 542 nm, emission 604-64 nm; and the DAPI excitation 350 nm, emission 450-55 nm at 37° C. with CO2. After imaging the plate is disposed of and the images are Data mined using the INCell developer Toolkit (GE Healthcare).
After the assays had been repeated in triplicate per line and compound the data was then inputted into Graph pad Prism 7 software suite where a dose response curve is generated using the default “[Agonist] vs response(three parameters)” equation. […]

[3] = tested on: sporadic PD patient fibroblasts; assay: Cellular ATP levels in sporadic PD patient fibroblasts, Preliminary ATP assay; settings: for activity at 0.1 µM / activity at 1 µM: Homo sapiens, Fibroblast; for activity at 0.1 µM: read-out: Average ATP Response 100 nM; for activity at 1 µM: read-out: Average ATP Response 1 μM
Protocol: In some cases, a preliminary ATP protocol was used in which EC50 was not determined. The preliminary ATP protocol is generally as described in Mortiboys et al 2008. Briefly, fibroblasts were cultured and plated into white, clear-bottom 384 well plates at a concentration of 4000 cells per well in 50 μl of media volume. The plates are left overnight in an incubator to allow the fibroblasts to adhere to the plate surface. The following morning the Glucose based medium is replaced with 25 μl of Galactose based medium. The cells were then dosed with 100 nM and 1 μM concentrations of the compounds using a ECHO 550 liquid handling system. After dosing the wells are topped up with a further 25 μl of Galactose based medium and then left in an incubator for 24 hours. Following this incubation, the medium is removed from the plate and the wells are washed twice with sterile PBS. The wells are filled with 20 μl of Sterile PBS followed by 10 μl of Lysis solution from the ATPlite™ Luminescence ATP detection assay system (Perkin Elmer), including 14 cell free wells to use as blank controls. The plate is then placed on a rotary shaker for 10 mins at 700 rpm. Following the shaking 10 μl of ATP substrate solution (Perkin Elmer) is added to each well and a further 5 min of shaking. The plate is then incubated in the dark for 10 minutes prior to reading. Using a FLUOstar® Omega plate reader, luminescence intensity is recorded. Following the ATP assay the plates are immediately assayed for DNA content in a CyQUANT® assay.
as §2, with “of 2” for “of 1”, “solution. 10” for “solution. 12.5”, “well. Cell plates were then incubated” for “well. Plate left in incubator”, “hour before being” for “hour then”, “a FLUOStar®” for “a PHERAStar©”
The ATP Quantification for each well is determined as set out above.

[4] = 100 nM, 24 h, % of vehicle treated sPD fibroblasts, 3 sporadic PD patients
[5] = 1 μM, 24 h, % of vehicle treated sPD fibroblasts, 3 sporadic PD patients

## C[C@H](CCCC(=O)O)[C@H]1CC[C@H]2[C@@H]3[C@@H](O)C[C@@H]4CN(C)CC[C@]4(C)[C@H]3CC[C@]12C [Compound 31b, N-Methyl-3-aza-7β-hydroxy-25-homo-5β-cholan-25-oic acid hydrotrifluoroacetate]
[1]; Homo sapiens, Fibroblast
  pEC50: 9.58
  Emax at 0.3 µM: 161%
  activity at 60 pM: 91.7%
[2]; Homo sapiens, Fibroblast
  pEC50: 8.21
  Emax: 95.1%
  activity at 60 pM: 86.5%

## C[C@H](CCC(=O)O)[C@H]1CC[C@H]2[C@@H]3[C@@H](O)C[C@@H]4CN(C)CC[C@]4(C)[C@H]3CC[C@]12C [Compound 33, N-Methyl-3-aza-7β-hydroxy-5β-cholan-24-oic acid hydrochloride]
[1]; hydrochloride
  pEC50: 9.12
[1]; Homo sapiens, Fibroblast
  activity at 60 pM: 88.8%
[2]; hydrochloride
  pEC50: 7.74
[2]; Homo sapiens, Fibroblast
  activity at 60 pM: 82.3%

## C[C@H](CCC(=O)O)[C@H]1CC[C@H]2[C@@H]3[C@@H](O)C[C@@H]4CN(C(=O)CO)CC[C@]4(C)[C@H]3CC[C@]12C [Compound 40a, N-Glycolyl-3-aza-7β-hydroxy-5β-cholan-24-oic acid]
[1]; Homo sapiens, Fibroblast
  pEC50: 7.64
  Emax at 0.3 µM: 103%
  activity at 60 pM: 89.9%
[2]; Homo sapiens, Fibroblast
  pEC50: 7.19
  Emax: 106%
  activity at 60 pM: 93.5%

## CC(C)C[C@H](NC(=O)CCC[C@@H](C)[C@H]1CC[C@H]2[C@@H]3[C@@H](O)C[C@@H]4CNCC[C@]4(C)[C@H]3CC[C@]12C)C(=O)O [Compound 75b, N-(3-Aza-7β-hydroxy-25-homo-5β-cholan-25-oyl)-(S)-2-amino-4-methylpentanoic acid]
[3]; [4]
  activity at 0.1 µM: 112%
[3]; [5]
  activity at 1 µM: 106%

## C[C@H](CCCC(=O)NCCCC[C@H](N)C(=O)O)[C@H]1CC[C@H]2[C@@H]3[C@@H](O)C[C@@H]4CNCC[C@]4(C)[C@H]3CC[C@]12C [Compound 76b, N-(3-Aza-7β-hydroxy-25-homo-5β-cholan-25-oyl)-(2S)-2,6-diaminohexanoic acid]
[3]; [4]
  activity at 0.1 µM: 105%
[3]; [5]
  activity at 1 µM: 106%

## C[C@H](CCCC(=O)N[C@@H](Cc1ccc(O)cc1)C(=O)O)[C@H]1CC[C@H]2[C@@H]3[C@@H](O)C[C@@H]4CNCC[C@]4(C)[C@H]3CC[C@]12C [Compound 77b, N-(3-Aza-7β-hydroxy-25-homo-5β-cholan-25-oyl)-(2S)-2-amino-3-(4-hydroxyphenyl)propanoic acid]
[3]; [4]
  activity at 0.1 µM: 109%
[3]; [5]
  activity at 1 µM: 113%

## C[C@H](CCC(=O)N1CC2(COC2)C1)[C@H]1CC[C@H]2[C@@H]3[C@@H](O)C[C@@H]4CN(C(=O)OCc5ccccc5)CC[C@]4(C)[C@H]3CC[C@]12C [Compound 78a, N-{(benzyloxycarbonyl)-3-aza-7β-hydroxy-5β-cholan-24-oyl}-2-oxa-6-azospiro{3,3}heptane]
[3]; [4]
  activity at 0.1 µM: 121%
[3]; [5]
  activity at 1 µM: 120%

## C[C@H](CCC(=O)N1CCC(=O)CC1)[C@H]1CC[C@H]2[C@@H]3[C@@H](O)C[C@@H]4CN(C(=O)OCc5ccccc5)CC[C@]4(C)[C@H]3CC[C@]12C [Compound 79a, N-{(benzyloxycarbonyl)-3-aza-7β-hydroxy-5β-cholan-24-oyl}-4-piperidone]
[3]; [4]
  activity at 0.1 µM: 116%
[3]; [5]
  activity at 1 µM: 122%

## C[C@H](CCCC(=O)NC1CCOC1)[C@H]1CC[C@H]2[C@@H]3[C@@H](O)C[C@@H]4CN(C(=O)OCc5ccccc5)CC[C@]4(C)[C@H]3CC[C@]12C (stereo partly drawn) [Compound 80b, N-{(benzyloxycarbonyl)-3-aza-7β-hydroxy-25-homo-5β-cholan-25-oyl}-3-aminotetrahydrofuran]
[3]; [4]
  activity at 0.1 µM: 122%
[3]; [5]
  activity at 1 µM: 120%

## C[C@H](CCC(=O)N1Cc2ccccc2C1)[C@H]1CC[C@H]2[C@@H]3[C@@H](O)C[C@@H]4CNCC[C@]4(C)[C@H]3CC[C@]12C [Compound 81a]
[3]; [4]
  activity at 0.1 µM: 94.2%
[3]; [5]
  activity at 1 µM: 102%

## C[C@H](CCCC(=O)NC1CCOC1)[C@H]1CC[C@H]2[C@@H]3[C@@H](O)C[C@@H]4CNCC[C@]4(C)[C@H]3CC[C@]12C (stereo partly drawn) [Compound 82b, N-{(3-aza-7β-hydroxy-25-homo-5β-cholan-25-oyl)}-3-aminotetrahydrofuran]
[3]; [4]
  activity at 0.1 µM: 96.2%
[3]; [5]
  activity at 1 µM: 97.5%

## S-(3-Aza-7β-hydroxy-5β-cholan-24-oyl)-phenylmethanethiol [Compound 64a]
[3]; 100 nM
  ATP production relative to control levels: returning ATP production to control levels
[3]; [4]
  Average ATP Response 100 nM: 118.2%
[3]; [5]
  Average ATP Response 1 μM: 111.4%
